# Columns and labels:
# Assay in all cases: relative viability (nuclei count vs DMSO), 5 days (fraction); higher = more cells survive
# H3255 = system: H3255
# How it was run: (§1)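 Relative viability divides the nuclei count in treated wells by that in vehicle wells. Lung cancer cell lines were seeded in 1536-well plates, dosed by pin tool the next day, and fixed and stained after 5 days in one step with final 0.05% Triton X-100, 1% formaldehyde and 1 ug/ml Hoechst. Dosing was a single drug or a fixed anchor-drug dose plus five library-drug doses (not always all listed) in √10 steps, and values are medians of duplicate plates imaged at 4×.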
# NCI-H1650 = system: NCI-H1650
# How it was run: as §1
# CAL-12T = system: CAL-12T
# How it was run: as §1
# NCI-H2009 = system: NCI-H2009
# How it was run: as §1
# NCI-H2087 = system: NCI-H2087
# How it was run: as §1
# LU99A = system: LU99A
# How it was run: as §1
# UMC-11 = system: UMC-11
# How it was run: as §1
# SK-LU-1 = system: SK-LU-1
# How it was run: as §1
# NCI-H520 = system: NCI-H520
# How it was run: as §1
# SK-MES-1 = system: SK-MES-1
# How it was run: as §1
# ABC-1 = system: ABC-1
# How it was run: as §1
# NCI-H1734 = system: NCI-H1734
# How it was run: as §1
# EKVX = system: EKVX
# How it was run: as §1
# EMC-BAC-2 = system: EMC-BAC-2
# How it was run: as §1
# NCI-H2085 = system: NCI-H2085
# How it was run: as §1
# BEN = system: BEN
# How it was run: as §1
# LC-2-ad = system: LC-2-ad
# How it was run: as §1
# NCI-H661 = system: NCI-H661
# How it was run: as §1
# SW 1573 = system: SW 1573
# How it was run: as §1
# NCI-H1792 = system: NCI-H1792
# How it was run: as §1
# NCI-H1993 = system: NCI-H1993
# How it was run: as §1
# NCI-H838 = system: NCI-H838
# How it was run: as §1
# NCI-H1355 = system: NCI-H1355
# How it was run: as §1
structure (smiles),measurement,setting,value
Nc1cccc2c1CN(C1CCC(=O)NC1=O)C2=O (configuration not stated) [Lenalidomide] + C[C@@H](Oc1cc(-c2cnn(C3CCNCC3)c2)cnc1N)c1c(Cl)ccc(F)c1Cl [Crizotinib] (partner 1 µM),relative viability,H3255; first compound 0.253 µM,0.79
same,relative viability,H3255; first compound 0.8 µM,0.885
same,relative viability,H3255; first compound 2.53 µM,0.872
same,relative viability,H3255; first compound 8 µM,0.946
same,relative viability,NCI-H1650; first compound 0.253 µM,0.922
same,relative viability,NCI-H1650; first compound 0.8 µM,1.03
same,relative viability,NCI-H1650; first compound 2.53 µM,1.11
same,relative viability,NCI-H1650; first compound 8 µM,1.17
same,relative viability,CAL-12T; first compound 0.253 µM,0.617
same,relative viability,CAL-12T; first compound 0.8 µM,0.587
same,relative viability,CAL-12T; first compound 2.53 µM,0.692
same,relative viability,CAL-12T; first compound 8 µM,0.857
same,relative viability,NCI-H2009; first compound 0.253 µM,1.07
same,relative viability,NCI-H2009; first compound 0.8 µM,1.03
same,relative viability,NCI-H2009; first compound 2.53 µM,1.12
same,relative viability,NCI-H2009; first compound 8 µM,1.1
same,relative viability,NCI-H2087; first compound 0.253 µM,0.81
same,relative viability,NCI-H2087; first compound 0.8 µM,0.896
same,relative viability,NCI-H2087; first compound 2.53 µM,0.539
same,relative viability,NCI-H2087; first compound 8 µM,0.928
same,relative viability,LU99A; first compound 0.253 µM,0.525
same,relative viability,LU99A; first compound 0.8 µM,0.517
same,relative viability,LU99A; first compound 2.53 µM,0.559
same,relative viability,LU99A; first compound 8 µM,0.54
same,relative viability,UMC-11; first compound 0.253 µM,0.61
same,relative viability,UMC-11; first compound 0.8 µM,0.573
same,relative viability,UMC-11; first compound 2.53 µM,0.601
same,relative viability,UMC-11; first compound 8 µM,0.644
same,relative viability,SK-LU-1; first compound 0.253 µM,1.05
same,relative viability,SK-LU-1; first compound 0.8 µM,1.06
same,relative viability,SK-LU-1; first compound 2.53 µM,0.867
same,relative viability,SK-LU-1; first compound 8 µM,0.852
same,relative viability,NCI-H520; first compound 0.253 µM,0.794
same,relative viability,NCI-H520; first compound 0.8 µM,0.777
same,relative viability,NCI-H520; first compound 2.53 µM,0.857
same,relative viability,NCI-H520; first compound 8 µM,0.752
same,relative viability,SK-MES-1; first compound 0.253 µM,1
same,relative viability,SK-MES-1; first compound 0.8 µM,1.04
same,relative viability,SK-MES-1; first compound 2.53 µM,0.972
same,relative viability,SK-MES-1; first compound 8 µM,0.974
same,relative viability,ABC-1; first compound 0.253 µM,1.06
same,relative viability,ABC-1; first compound 0.8 µM,1.25
same,relative viability,ABC-1; first compound 2.53 µM,1.37
same,relative viability,ABC-1; first compound 8 µM,1.43
same,relative viability,NCI-H1734; first compound 0.253 µM,0.622
same,relative viability,NCI-H1734; first compound 0.8 µM,0.654
same,relative viability,NCI-H1734; first compound 2.53 µM,0.618
same,relative viability,NCI-H1734; first compound 8 µM,0.597
same,relative viability,EKVX; first compound 0.253 µM,0.978
same,relative viability,EKVX; first compound 0.8 µM,1.05
same,relative viability,EKVX; first compound 2.53 µM,1.09
same,relative viability,EKVX; first compound 8 µM,0.998
same,relative viability,EMC-BAC-2; first compound 0.253 µM,0.721
same,relative viability,EMC-BAC-2; first compound 0.8 µM,0.679
same,relative viability,EMC-BAC-2; first compound 2.53 µM,0.815
same,relative viability,EMC-BAC-2; first compound 8 µM,0.769
same,relative viability,NCI-H2085; first compound 0.253 µM,0.866
same,relative viability,NCI-H2085; first compound 0.8 µM,0.742
same,relative viability,NCI-H2085; first compound 2.53 µM,0.97
same,relative viability,NCI-H2085; first compound 8 µM,0.926
same,relative viability,BEN; first compound 0.253 µM,1.04
same,relative viability,BEN; first compound 0.8 µM,0.642
same,relative viability,BEN; first compound 2.53 µM,1.07
same,relative viability,BEN; first compound 8 µM,0.85
same,relative viability,LC-2-ad; first compound 0.253 µM,0.516
same,relative viability,LC-2-ad; first compound 0.8 µM,0.43
same,relative viability,LC-2-ad; first compound 2.53 µM,0.547
same,relative viability,LC-2-ad; first compound 8 µM,0.511
same,relative viability,NCI-H661; first compound 0.253 µM,0.972
same,relative viability,NCI-H661; first compound 0.8 µM,0.898
same,relative viability,NCI-H661; first compound 2.53 µM,0.905
same,relative viability,NCI-H661; first compound 8 µM,0.973
same,relative viability,SW 1573; first compound 0.253 µM,0.801
same,relative viability,SW 1573; first compound 0.8 µM,0.844
same,relative viability,SW 1573; first compound 2.53 µM,0.766
same,relative viability,SW 1573; first compound 8 µM,0.772
same,relative viability,NCI-H1792; first compound 0.253 µM,1.04
same,relative viability,NCI-H1792; first compound 0.8 µM,0.795
same,relative viability,NCI-H1792; first compound 2.53 µM,1.12
same,relative viability,NCI-H1792; first compound 8 µM,0.96
same,relative viability,NCI-H1993; first compound 0.253 µM,0.626
same,relative viability,NCI-H1993; first compound 0.8 µM,0.852
same,relative viability,NCI-H1993; first compound 2.53 µM,0.761
same,relative viability,NCI-H1993; first compound 8 µM,0.777
same,relative viability,NCI-H838; first compound 0.253 µM,0.847
same,relative viability,NCI-H838; first compound 0.8 µM,0.954
same,relative viability,NCI-H838; first compound 2.53 µM,0.914
same,relative viability,NCI-H838; first compound 8 µM,0.913
same,relative viability,NCI-H1355; first compound 0.253 µM,1.04
same,relative viability,NCI-H1355; first compound 0.8 µM,0.956
same,relative viability,NCI-H1355; first compound 2.53 µM,1.26
same,relative viability,NCI-H1355; first compound 8 µM,0.923
